The target of assay [1] is T1, human estrogen receptor α (hERα) (Homo sapiens, UniProt P03372).
T1 sequence (P03372 1-595): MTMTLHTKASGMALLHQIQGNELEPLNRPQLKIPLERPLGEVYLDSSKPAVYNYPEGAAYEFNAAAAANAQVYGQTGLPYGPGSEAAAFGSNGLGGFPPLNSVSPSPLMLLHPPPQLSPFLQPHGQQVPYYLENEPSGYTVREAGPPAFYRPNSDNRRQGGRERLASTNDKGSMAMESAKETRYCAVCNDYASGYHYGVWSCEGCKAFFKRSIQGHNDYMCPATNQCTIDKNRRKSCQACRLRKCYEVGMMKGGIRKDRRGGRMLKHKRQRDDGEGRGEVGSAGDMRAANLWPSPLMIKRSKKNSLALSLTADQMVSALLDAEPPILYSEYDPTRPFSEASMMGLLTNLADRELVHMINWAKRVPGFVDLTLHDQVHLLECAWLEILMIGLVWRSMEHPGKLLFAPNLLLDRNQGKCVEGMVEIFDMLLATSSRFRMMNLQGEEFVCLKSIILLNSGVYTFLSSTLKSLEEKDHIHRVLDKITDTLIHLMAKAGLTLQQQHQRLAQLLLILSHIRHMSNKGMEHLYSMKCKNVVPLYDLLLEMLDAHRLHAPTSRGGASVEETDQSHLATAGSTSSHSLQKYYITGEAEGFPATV
As to the kind of experiment: antagonistic activity in CHO cells co-transfected with hERα, rat oxytocin promoter and luciferase reporter gene. The settings on record: antagonism of 17β-estradiol-induced transactivation, CHO-hERα-RO-LUC; read-out: ERα pIC50 (converted). In kind it is cell-based. As to the method: The antagonistic activity of compounds on the estrogen receptors was determined in an in vitro bioassay with recombinant Chinese Hamster Ovary (CHO) cells stably co-transfected with the human estrogen receptor α (hERα), the rat oxytocin promoter (RO) and the luciferase reporter gene (LUC). […] The antagonistic efficacy, i.e. the amount of maximal inhibition of the 17β-estradiol activated receptor by a compound, is expressed as fraction relative to the maximal inhibition as induced by the standard anti-estrogen ICI 164,384 (efficacy test compound=(maximal inhibition test compound/maximal inhibition ICI 164,384)). A more detailed description of the methodology can be found in De Gooyer et al., Steroids, 68 (2003) 21-30.

For the next assay, the target named is T2, estrogen receptor alpha (Homo sapiens, UniProt P03372).
T2 construct: endogenous in cells; host or cells: T47D human breast cancer cells (ATCC)
T2 sequence (P03372 1-595): T1 sequence (P03372 1-595)
Description: ERα downregulation assay in T47D breast cancer cells (ERα ELISA). The assay is classed as cell-based. The note with it: downregulation of ERα relative to fulvestrant (100%), 1E-5 M, 24 hours, negative = upregulation. An excerpt: More specifically, this in vitro bioassay is used to determine the efficacy (fraction of maximal response) of the compound by comparing the data for this compound with those of the reference compound ICI 182,780 (fulvestrant) in the same test (downregulation of fulvestrant is 100% by definition).
A more detailed description of the method used is as follows.
Cell culture. The human epithelial breast cancer cell line T47D (origin: ATCC) was routinely maintained in a 1:1 mixture of Ham's F12 medium and Dulbecco's Modified Eagle Medium (Gibco) enriched with 5% fetal calf serum (Hyclone), 10 mM HEPES pH 7.5 and 100 μg/ml penicillin-streptomycin solution. Cells were grown in 80 cm2 culture flasks (Nunc, Roskilde, Denmark) and kept in an atmosphere of 5% CO2-95% air at 37 degrees Celsius. Cells were subcultured when they reached about 80-90% confluence, resulting in one passage a week. Subculturing includes detaching the cells using Cell Dissociation Buffer [Sigma] and subsequent inoculation at 1:5 or 1:10 in a new Roux flask (175 cc) and\or plating out in Nunclon™ Surface 96 wells microplates. The culture medium needs to be refreshed on day three or four of the incubation, if applicable.
Determination of ERα protein levels: T47D cells in the microplates are incubated with 1E-5 M test compound for 24 hours. The supernatant in all wells is carefully aspirated. Cells are lysed on the microplate and cell lysates are probed for ERα content using an ERα ELISA assay kit (Active Motif).

We go through 20 compounds from US9540361B2, “N-substituted azetidine derivatives” (Merck Sharp & Dohme B.V., priority 2010, dated 2017).

The structures appear in SMILES notation.

For the compound `CCCN1CC(Oc2ccc(C(=O)c3c(-c4ccc(O)cc4C)sc4cc(O)ccc34)cc2)C1.Cl` [compound 7q, (6-hydroxy-2-(4-hydroxy-2-methylphenyl)benzo[b]thiophen-3-yl)(4-(1-propylazetidin-3-yloxy)phenyl)methanone hydrochloride], the IC50 in assay [1] was 1.26 nM. Also, the “DR (%)” value at estrogen receptor alpha came to 64%.

Take `CCN1CC(Oc2ccc(C(=O)c3c(-c4ccc(O)cc4)sc4cc(O)ccc34)cc2)C1.O=C(O)C(F)(F)F` [compound 7g, (4-(1-ethylazetidin-3-yloxy)phenyl)(6-hydroxy-2-(4-hydroxyphenyl)benzo[b]-thiophen-3-yl)methanone 2,2,2-trifluoroacetate]: in assay [1], the IC50 is 3.98 nM. Also, the “DR (%)” value on estrogen receptor alpha stood at 46%.

As to `CCCN1CC(Oc2ccc(Cc3c(-c4ccccc4)c(=O)oc4cc(OC)ccc34)cc2)C1` [compound 7bf, 7-methoxy-3-phenyl-4-(4-(1-propylazetidin-3-yloxy)benzyl)-2H-chromen-2-one], the IC50 in assay [1] was 63.1 nM. On estrogen receptor alpha, the “DR (%)” value came to 33%.

With `CCCN1CC(Oc2ccc(C(=O)c3c(-c4ccc(F)c(C)c4)sc4cc(O)ccc34)cc2)C1.Cl` [compound 7s, (2-(4-fluoro-3-methylphenyl)-6-hydroxybenzo[b]thiophen-3-yl)(4-(1-propylazetidin-3-yloxy)phenyl)methanone hydrochloride], in assay [1], the IC50 was 5.01 nM. For the same compound, the “DR (%)” value at estrogen receptor alpha was found to be 101%.

As to `CCCN1CC(Oc2ccc(C(=O)c3c(-c4ccccc4Cl)noc3-c3cc[nH]c3)cc2)C1.O=C(O)C(F)(F)F` [compound 7aq, (3-(2-chlorophenyl)-5-(1H-pyrrol-3-yl)isoxazol-4-yl)(4-(1-propylazetidin-3-yl-oxy)phenyl)methanone 2,2,2-trifluoroacetate], the IC50 in assay [1] was 25.1 nM. Also, the “DR (%)” value on estrogen receptor alpha is given as 78%.

For `CCCN1CC(Oc2ccc(-c3c(-c4ccccc4CC)noc3-c3ccc(O)cc3)cc2)C1.O=C(O)C(F)(F)F` [compound 7ad, 4-(3-(2-ethylphenyl)-4-(4-(1-propylazetidin-3-yloxy)phenyl)isoxazol-5-yl)-phenol 2,2,2-trifluoroacetate], the IC50 in assay [1] is 1 nM. Besides, the “DR (%)” value on estrogen receptor alpha is recorded as 92%.

Turning to `CCCN1CC(Oc2ccc(C(=O)c3c(-c4ccc(O)cc4)noc3-c3ccccc3Cl)cc2)C1` [compound 6n, (5-(2-chlorophenyl)-3-(4-hydroxyphenyl)isoxazol-4-yl)(4-(1-propylazetidin-3-yloxy)phenyl)methanone], in assay [1], the IC50 is 3.98 nM. The “DR (%)” value at estrogen receptor alpha is listed as 62%.

With `CCCN1CC(Oc2ccc(C(=O)c3c(-c4cc(F)cc(F)c4)sc4cc(O)ccc34)cc2)C1.Cl` [compound 7t, (2-(3,5-difluorophenyl)-6-hydroxybenzo[b]thiophen-3-yl)(4-(1-propylazetidin-3-yloxy)phenyl)methanone hydrochloride], the IC50 in assay [1] is 2 nM. In addition, at estrogen receptor alpha, the “DR (%)” value worked out at 98%.

Take `CCCN1CC(Oc2ccc(-c3c(-c4cccc(C)c4C)noc3-c3ccc(O)cc3)cc2)C1.O=C(O)C(F)(F)F` [compound 7ac, 4-(3-(2,3-dimethylphenyl)-4-(4-(1-propylazetidin-3-yloxy)phenyl)isoxazol-5-yl)phenol 2,2,2-trifluoroacetate]: the IC50 in assay [1] is 1.58 nM. Besides, the “DR (%)” value at estrogen receptor alpha came out at 94%.

Turning to `CCCN1CC(Oc2ccc(-c3c(-c4snnc4C)noc3-c3ccc(O)cc3)cc2)C1.Cl` [compound 7ae, 4-(3-(4-methyl-1,2,3-thiadiazol-5-yl)-4-(4-(1-propylazetidin-3-yloxy)phenyl)isoxazol-5-yl)phenol hydrochloride], the IC50 in assay [1] was 12.6 nM. Besides, on estrogen receptor alpha, the “DR (%)” value is 99%.

With `CCCN1CC(Oc2ccc(C(=O)c3c(-c4ccc(O)c(C)c4)sc4cc(O)ccc34)cc2)C1.Cl` [compound 7r, (6-hydroxy-2-(4-hydroxy-3-methylphenyl)benzo[b]thiophen-3-yl)(4-(1-propylazetidin-3-yloxy)phenyl)methanone hydrochloride], the IC50 in assay [1] is 2 nM. Besides, the “DR (%)” value at estrogen receptor alpha was 94%.

For the compound `CCCN1CC(Oc2ccc(C(=O)c3c(-c4ccc(O)cc4)sc4cc(O)ccc34)cc2F)C1.Cl` [compound 7u, (3-fluoro-4-(1-propylazetidin-3-yloxy)phenyl)(6-hydroxy-2-(4-hydroxyphenyl)-benzo[b]thiophen-3-yl)methanone hydrochloride], in assay [1], the IC50 is 0.794 nM. Also, the “DR (%)” value at estrogen receptor alpha was determined as 78%.

As for `CC(C)CN1CC(Oc2ccc(C(=O)c3c(-c4ccc(O)cc4)sc4cc(O)ccc34)cc2)C1.Cl` [compound 7m, (6-hydroxy-2-(4-hydroxyphenyl)benzo[b]thiophen-3-yl)(4-(1-isobutylazetidin-3-yloxy)phenyl)methanone hydrochloride], the IC50 in assay [1] was 1 nM. Also, the “DR (%)” value on estrogen receptor alpha is listed as 73%.

As for `Cl.O=C(c1ccc(OC2CN(CC3CCOC3)C2)cc1)c1c(-c2ccc(O)cc2)sc2cc(O)ccc12` (stereo not shown) [compound 7o, (6-hydroxy-2-(4-hydroxyphenyl)benzo[b]thiophen-3-yl)(4-(1-((tetrahydrofuran-3-yl)methyl)azetidin-3-yloxy)phenyl)methanone hydrochloride], in assay [1], the IC50 was 5.01 nM. Further, the “DR (%)” value at estrogen receptor alpha is on record as 73%.

For `Cl.Oc1ccc(-c2onc(-c3ccccc3Cl)c2-c2ccc(OC3CN(CC4CCOC4)C3)cc2)cc1` (stereo not shown) [compound 7x, 4-(3-(2-chlorophenyl)-4-(4-(1-((tetrahydrofuran-3-yl)methyl)azetidin-3-yloxy)-phenyl)isoxazol-5-yl)phenol hydrochloride], the IC50 in assay [1] is 0.501 nM. The “DR (%)” value at estrogen receptor alpha is recorded as 66%.

Regarding `O=C(O)C(F)(F)F.O=C(c1ccc(OC2CN(CCCF)C2)cc1)c1c(-c2ccc(O)cc2)sc2cc(O)ccc12` [compound 7j, (4-(1-(3-fluoropropyl)azetidin-3-yloxy)phenyl)(6-hydroxy-2-(4-hydroxyphenyl)benzo[b]thiophen-3-yl)methanone 2,2,2-trifluoroacetate], the IC50 in assay [1] is 2.51 nM. In addition, the “DR (%)” value on estrogen receptor alpha stood at 98%.

Turning to `CCCN1CC(Oc2ccc(C(=O)c3c(-c4cccn4C)noc3-c3ccc(O)cc3)cc2)C1.Cl` [7al, (5-(4-hydroxyphenyl)-3-(1-methyl-1H-pyrrol-2-yl)isoxazol-4-yl)(4-(1-propylazetidin-3-yloxy)phenyl)methanone hydrochloride], the IC50 in assay [1] is 7.94 nM. Besides, the “DR (%)” value on estrogen receptor alpha worked out at 100%.

As for `CCCN1CC(Oc2ccc(C(OC)c3c(-c4ccccc4Cl)noc3-c3ccc(O)cc3)cc2)C1` (stereo not shown) [compound 7aw, 4-(3-(2-chlorophenyl)-4-(methoxy(4-(1-propylazetidin-3-yloxy)phenyl)methyl)-isoxazol-5-yl)phenol], the IC50 in assay [1] was 7.94 nM. For the same compound, on estrogen receptor alpha, the “DR (%)” value was 64%.

For `CCCN1CC(Oc2ccc(-c3c(-c4c(C)cccc4Cl)noc3-c3ccc(O)cc3)cc2)C1.O=C(O)C(F)(F)F` [compound 7ab, 4-(3-(2-chloro-6-methylphenyl)-4-(4-(1-propylazetidin-3-yloxy)phenyl)isoxazol-5-yl)phenol 2,2,2-trifluoroacetate], in assay [1], the IC50 was 0.398 nM. Moreover, at estrogen receptor alpha, the “DR (%)” value came to 86%.

With `CCCN1CC(Oc2ccc(C(=O)c3c(-c4ncccc4C)noc3-c3ccc(O)cc3)cc2)C1.Cl` [compound 7am, (5-(4-hydroxyphenyl)-3-(3-methylpyridin-2-yl)isoxazol-4-yl)(4-(1-propylazetidin-3-yloxy)phenyl)methanone hydrochloride], the IC50 in assay [1] was 25.1 nM. Besides, the “DR (%)” value on estrogen receptor alpha worked out at 93%.
